Here are results for 43 molecules from patent publication US11478474B2, “2-(3′-(hydroxymethyl)-1-methyl-5-((5-(2-methyl-4-(oxetan-3-yl)piperazin-1-yl)pyridin-2-yl)amino)-6-oxo-1,6-dihydro-[3,4′-bipyridin]-2′-yl)-7,7-dimethyl-7,8-dihydro-2H-cyclopenta[4,5]pyrrolo[1,2-a]pyrazin-1(6H)-one as a BTK inhibitor” (HUTCHISON MEDIPHARMA LIMITED, priority 2020, dated 2022).

Broadly, the IC50 is the concentration needed to halve the response being measured.

One assay deals with BTK recombinant protein (Homo sapiens (Human), UniProt Q06187). Put plainly: Determination of biochemical BTK (Z'-LYTE kinase assay). An outline of the steps: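 Human BTK recombinant kinase (3.32 nM final) was preincubated with compound for 30 min at 4 °C. Reaction ran 1 h at room temperature with Tyr01 FRET peptide (2 μM) and ATP (32 μM); development protease then added. Coumarin 445 nm/fluorescein 520 nm emission ratio (400 nm excitation) gave inhibition across 8 concentrations, 3000–1.37 nM.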

Assay [1] addresses phosphorylated BTK in Ramos cells (Homo sapiens (Human), UniProt Q06187). Put plainly: Determination of phosphorylated BTK in Ramos cells (BTK phospho-Y223 HTRF). In kind it is cell-based. As to conditions: anti-human IgM + hydrogen peroxide stimulation. In outline:
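BTK Y223 phosphorylation measured by HTRF (665/615 nm) in lysates of Ramos cells. Cells were serum-starved 2 h, exposed to compound for 1 h (final 0.00018–3.0 μM, 0.3% DMSO), then stimulated 10 min with 10 μg/mL anti-IgM and 3.3 mM H2O2. IC50 derived from percent inhibition between unstimulated and stimulated controls.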
On the technique in general: In TR-FRET formats the signal depends on donor and acceptor labels being close together.

BTK recombinant protein, sequence (Q06187 whole entry): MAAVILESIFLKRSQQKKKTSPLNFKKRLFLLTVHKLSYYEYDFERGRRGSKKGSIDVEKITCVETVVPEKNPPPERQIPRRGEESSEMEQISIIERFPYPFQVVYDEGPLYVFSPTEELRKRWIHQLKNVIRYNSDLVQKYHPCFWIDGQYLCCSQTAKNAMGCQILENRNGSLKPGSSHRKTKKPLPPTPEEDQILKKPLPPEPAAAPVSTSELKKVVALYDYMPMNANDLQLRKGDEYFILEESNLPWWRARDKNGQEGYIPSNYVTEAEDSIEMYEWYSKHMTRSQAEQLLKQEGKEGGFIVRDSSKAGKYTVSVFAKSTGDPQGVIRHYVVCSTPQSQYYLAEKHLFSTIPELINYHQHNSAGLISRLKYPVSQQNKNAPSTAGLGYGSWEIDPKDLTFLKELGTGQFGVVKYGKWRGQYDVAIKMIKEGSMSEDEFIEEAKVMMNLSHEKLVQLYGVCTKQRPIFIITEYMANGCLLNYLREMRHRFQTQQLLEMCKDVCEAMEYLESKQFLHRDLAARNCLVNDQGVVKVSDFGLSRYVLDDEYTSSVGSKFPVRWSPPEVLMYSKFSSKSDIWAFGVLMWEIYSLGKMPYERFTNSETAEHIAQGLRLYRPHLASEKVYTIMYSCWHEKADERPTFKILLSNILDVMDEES
phosphorylated BTK in Ramos cells, sequence (Q06187 whole entry): as above

In the case of `Cn1cc(-c2ccnc(-n3ccn4c5c(cc4c3=O)CC(C)(C)C5)c2CO)cc(Nc2cc3n(n2)CCOC3)c1=O` [Compound 162], the IC50 came to 1 nM at BTK recombinant protein and 6 nM in assay [1].
Regarding `COCCN1CCn2nc(Nc3cc(-c4ccnc(-n5ncn6c7c(cc6c5=O)CCCC7)c4CO)cn(C)c3=O)cc2C1` [Compound 163], the half-maximal inhibitory concentration (IC50) on BTK recombinant protein was 8 nM; in assay [1], 34 nM.
The matching figures for `Cc1nn(-c2nccc(-c3cc(Nc4cc5n(n4)CCN(C4COC4)C5)c(=O)n(C)c3)c2CO)c(=O)c2cc3c(n12)CC(C)(C)C3` [Compound 164]: 12 nM and 23 nM.
For the molecule `CCN1CCn2nc(Nc3cc(-c4ccnc(-n5ncn6c7c(cc6c5=O)CC(C)(C)C7)c4CO)cn(C)c3=O)cc2C1` [Compound 165], the concentration for half-maximal inhibition (IC50) on BTK recombinant protein was 4 nM; in assay [1], 31 nM.
For `Cn1cc(-c2ccnc(-n3ncn4c5c(cc4c3=O)CCCC5)c2CO)cc(Nc2cc3n(n2)CCN(C2COC2)C3)c1=O` [Compound 166], the figures for the IC50 (at BTK recombinant protein; in assay [1]) were 35 nM and 121 nM, respectively.
With `COCCN1CCn2nc(Nc3cc(-c4ccnc(-n5ccn6c7c(c(F)c6c5=O)CCCC7)c4CO)cn(C)c3=O)cc2C1` [Compound 167], the IC50 came out at 16 nM at BTK recombinant protein and 12 nM in assay [1].
As for `COCCN1CCn2nc(Nc3cc(-c4ccnc(-n5ccn6c7c(cc6c5=O)CC(C)C7)c4CO)cn(C)c3=O)cc2C1` (centres unmarked) [Compound 168], the IC50 at BTK recombinant protein was found to be 28 nM; in assay [1], 20 nM.
On to `COc1ccc(Nc2cc(-c3ccnc(-n4ccn5c6c(cc5c4=O)CC(C)(C)C6)c3CO)cn(C)c2=O)nn1` [Compound 169], for which the IC50 at BTK recombinant protein was 60 nM; in assay [1] it was 30 nM.
On to `Cn1cc(-c2ccnc(-n3ncn4c5c(cc4c3=O)CC(C)(C)C5)c2CO)cc(Nc2cc3n(n2)CCN(C2CCC2)C3)c1=O` [Compound 170], for which the IC50 at BTK recombinant protein was determined as 18 nM; in assay [1] it was 16 nM.
Taken in the same sequence, the figures for `Cn1cc(-c2ccnc(-n3ncn4c5c(cc4c3=O)CC(C)(C)C5)c2CO)cc(Nc2cc3n(n2)CCN(C2CC2)C3)c1=O` [Compound 171] were 13 nM and 11 nM.
For the molecule `CCn1cc(Nc2cc(-c3ccnc(-n4ccn5c6c(cc5c4=O)CC(C)(C)C6)c3CO)cn(C)c2=O)cn1` [Compound 172], the results for the IC50 (at BTK recombinant protein; in assay [1]) were 41 nM and 11 nM, respectively.
Take `CC(C)n1cc(Nc2cc(-c3ccnc(-n4ccn5c6c(cc5c4=O)CC(C)(C)C6)c3CO)cn(C)c2=O)cn1` [Compound 173]: the IC50 at BTK recombinant protein is 80 nM; in assay [1], 28 nM.
For `CCCn1cc(Nc2cc(-c3ccnc(-n4ccn5c6c(cc5c4=O)CC(C)(C)C6)c3CO)cn(C)c2=O)cn1` [Compound 174], the IC50 at BTK recombinant protein was 2 nM; in assay [1] it was 44 nM.
The matching figures for `COCCn1cc(Nc2cc(-c3ccnc(-n4ccn5c6c(cc5c4=O)CC(C)(C)C6)c3CO)cn(C)c2=O)cn1` [Compound 175]: 71 nM and 40 nM.
In the case of `Cn1cc(-c2ccnc(-n3ccn4c5c(c(F)c4c3=O)CCCC5)c2CO)cc(Nc2cc3n(n2)CCOC3)c1=O` [Compound 176], the IC50 at BTK recombinant protein turned out to be 3 nM; in assay [1], 16 nM.
Regarding `COCCN1CCn2nc(Nc3cc(-c4ccnc(-n5ccn6c(c(F)c7ccccc76)c5=O)c4CO)cn(C)c3=O)cc2C1` [Compound 177], the IC50 was found to be 6 nM on BTK recombinant protein and 21 nM in assay [1].
On to `Cn1cc(-c2ccnc(-n3ccn4c(c(F)c5ccccc54)c3=O)c2CO)cc(Nc2cc3n(n2)CCN(C2COC2)C3)c1=O` [Compound 178], for which the half-maximal inhibitory concentration (IC50) on BTK recombinant protein came out at 6 nM; in assay [1] it was 12 nM.
For the molecule `CCn1cc(Nc2cc(-c3ccnc(-n4ccn5c6c(c(F)c5c4=O)CCCC6)c3CO)cn(C)c2=O)cn1` [Compound 180], the IC50 was 16 nM at BTK recombinant protein and 84 nM in assay [1].
On to `CC1Cc2cc3c(=O)n(-c4nccc(-c5cc(Nc6cc7n(n6)CCOC7)c(=O)n(C)c5)c4CO)ccn3c2C1` (centres unmarked) [Compound 181], for which the half-inhibitory concentration (IC50) worked out at 12 nM at BTK recombinant protein and 38 nM in assay [1].
In the case of `Cn1cc(-c2ccnc(-n3ccn4c(c(F)c5ccccc54)c3=O)c2CO)cc(Nc2ccc(C3CN(C4COC4)C3)cn2)c1=O` [Compound 183], the values for the 50% inhibitory concentration (IC50) (at BTK recombinant protein; in assay [1]) were 25 nM and 67 nM, respectively.
For the molecule `C[C@H]1CN(C2COC2)CCN1c1ccc(Nc2cc(-c3ccnc(-n4cnn5c6c(cc5c4=O)CCCC6)c3CO)cn(C)c2=O)nc1` [Compound 184], the concentration for half-maximal inhibition (IC50) on BTK recombinant protein was 77 nM; in assay [1], 80 nM.
Regarding `C[C@H]1CN(C(CO)CO)CCN1c1ccc(Nc2cc(-c3ccnc(-n4ccn5c6c(cc5c4=O)CC(C)(C)C6)c3CO)cn(C)c2=O)nc1` [Compound 185], the IC50 (at BTK recombinant protein; in assay [1]) was 13 nM in each case.
For `C[C@H]1CN(C2COC2)CCN1c1ccc(Nc2cc(-c3ccnc(-n4ncn5c6c(c(F)c5c4=O)CCCC6)c3CO)cn(C)c2=O)nc1` [Compound 186], the results for the 50% inhibitory concentration (IC50) (on BTK recombinant protein; in assay [1]) were 14 nM and 10 nM, respectively.
As to `Cc1ccc2c(c1)cc1c(=O)n(-c3nccc(-c4cc(Nc5ccc(N6CCN(C7COC7)C[C@@H]6C)cn5)c(=O)n(C)c4)c3CO)ccn12` [Compound 188], the half-inhibitory concentration (IC50) at BTK recombinant protein was found to be 41 nM; in assay [1], 39 nM.
Regarding `C[C@H]1COCCN1c1ccc(Nc2cc(-c3ccnc(-n4ccn5c6c(cc5c4=O)CCC6)c3CO)cn(C)c2=O)nc1` [Compound 189], the values for the 50% inhibitory concentration (IC50) (on BTK recombinant protein; in assay [1]) were 39 nM and 51 nM, respectively.
For the molecule `C[C@H]1CN(C2COC2)CCN1c1ccc(Nc2cc(-c3ccnc(-n4cnn5c6c(c(F)c5c4=O)CCCC6)c3CO)cn(C)c2=O)nc1` [Compound 190], the half-maximal inhibitory concentration (IC50) on BTK recombinant protein turned out to be 29 nM; in assay [1], 40 nM.
In the case of `Cn1cc(-c2ccnc(-n3ncn4c5c(cc4c3=O)CC(C)(C)C5)c2CO)cc(Nc2ccc(N3CCN(C4COC4)CC3(C)C)cn2)c1=O` [Compound 191], the IC50 came to 11 nM on BTK recombinant protein and 10 nM in assay [1].
Take `Cc1cc(Nc2cc(-c3ccnc(-n4ncn5c6c(cc5c4=O)CC(C)(C)C6)c3CO)cn(C)c2=O)no1` [Compound 192]: the IC50 was 9 nM at BTK recombinant protein and 16 nM in assay [1].
In the case of `C[C@@H]1CN(c2ccc(Nc3cc(-c4ccnc(-n5ncn6c7c(cc6c5=O)CC(C)(C)C7)c4CO)cn(C)c3=O)nc2)[C@@H](C)CN1C1COC1` [Compound 193], the half-inhibitory concentration (IC50) on BTK recombinant protein was 12 nM; in assay [1], 6 nM.
Take `C[C@H]1COCCN1c1ccc(Nc2cc(-c3ccnc(-n4ncn5c6c(cc5c4=O)CC(C)(C)C6)c3CO)cn(C)c2=O)nc1` [Compound 196]: the results for the IC50 (on BTK recombinant protein; in assay [1]) were 2 nM and 7 nM, respectively.
For the molecule `C[C@H]1CN(C2COC2)CCN1c1ccc(Nc2cc(-c3ccnc(-n4ccn5c6c(cc5c4=O)CC(C)(C)[C@@H]6O)c3CO)cn(C)c2=O)nc1` [Compound 198], the IC50 on BTK recombinant protein was determined as 4 nM; in assay [1] it was 12 nM.
Turning to `C[C@H]1CN(C2COC2)CCN1c1ccc(Nc2cc(-c3ccnc(-n4ccn5c6c(cc5c4=O)CC(C)(C)[C@H]6O)c3CO)cn(C)c2=O)nc1` [Compound 199], the IC50 on BTK recombinant protein turned out to be 8 nM; in assay [1], 25 nM.
As for `Cn1cc(-c2ccnc(-n3ccn4c5c(cc4c3=O)CC(C)(C)C5)c2CO)cc(Nc2ccc(C3CCN(C4COC4)CC3)nn2)c1=O` [Compound 200], the values for the IC50 (at BTK recombinant protein; in assay [1]) were 4 nM and 21 nM, respectively.
As for `CCn1cc(-c2ccnc(-n3ccn4c5c(cc4c3=O)CC(C)(C)C5)c2CO)cc(Nc2ccc(N3CCN(C4COC4)C[C@@H]3C)cn2)c1=O` [Compound 202], the half-maximal inhibitory concentration (IC50) at BTK recombinant protein came to 8 nM; in assay [1], 17 nM.
Turning to `C[C@H]1COCCN1c1ccc(Nc2cc(-c3ccnc(-n4ccn5c6c(cc5c4=O)CC(C)(C)C6)c3CO)cn(C)c2=O)nn1` [Compound 203], the half-maximal inhibitory concentration (IC50) is less than 1 nM on BTK recombinant protein and 7 nM in assay [1].
Taken in the same sequence, the figures for `C[C@H]1CN(C2COC2)CCN1c1ccc(Nc2cc(-c3ccnc(-n4ccn5c6c(cc5c4=O)CC(C)(C)C6)c3CO)cn(C)c2=O)nn1` [Compound 204] were 11 nM and 7 nM.
For the molecule `C[C@@H]1CN(c2ccc(Nc3cc(-c4ccnc(-n5ccn6c7c(cc6c5=O)CC(C)(C)C7)c4CO)cn(C)c3=O)nn2)[C@@H](C)CN1C1COC1` [Compound 205], the IC50 (on BTK recombinant protein; in assay [1]) was 15 nM in each case.
As for `COCCN1CCN(c2ccc(Nc3cc(-c4ccnc(-n5ncn6c7c(cc6c5=O)CC(C)(C)C7)c4CO)cn(C)c3=O)nc2)[C@@H](C)C1` [Compound 206], the IC50 on BTK recombinant protein was determined as 13 nM; in assay [1], 7 nM.
The matching figures for `COCCN1C[C@H](C)N(c2ccc(Nc3cc(-c4ccnc(-n5ncn6c7c(cc6c5=O)CC(C)(C)C7)c4CO)cn(C)c3=O)nc2)C[C@H]1C` [Compound 207]: 11 nM and 8 nM.
`CCn1cc(Nc2cc(-c3ccnc(-n4ncn5c6c(cc5c4=O)CC(C)(C)C6)c3CO)cn3ncnc23)nn1` [Compound 208]: the IC50 (on BTK recombinant protein; in assay [1]) was 4 nM throughout.
As to `C[C@@H]1CN(c2ccc(Nc3cc(-c4ccnc(-n5ncn6c7c(cc6c5=O)CC(C)(C)C7)c4CO)cn(C)c3=O)nn2)[C@@H](C)CN1C1COC1` [Compound 209], the IC50 at BTK recombinant protein was determined as 11 nM; in assay [1], 5 nM.
The matching figures for `CCn1cc(-c2ccnc(-n3ncn4c5c(cc4c3=O)CC(C)(C)C5)c2CO)cc(Nc2ccc(N3C[C@@H](C)N(C4COC4)C[C@@H]3C)cn2)c1=O` [Compound 210]: 21 nM and 19 nM.
The matching figures for `CCn1cc(-c2ccnc(-n3ncn4c5c(cc4c3=O)CC(C)(C)C5)c2CO)cc(Nc2ccc(N3CCN(C4COC4)C[C@@H]3C)cn2)c1=O` [Compound 211]: 17 nM and 20 nM.
